Results from BindingDB's records for doi:10.1074/jbc.M112.341321 (Council of Scientific and Industrial Research (Csir) Indian …, 2012).

Key:
Test in all cases: Tautomerase Activity Assay
[1] = biological target: T1, Macrophage migration inhibitory factor (Plasmodium falciparum (isolate 3D7), UniProt Q8I5C5)
T1 sequence (Q8I5C5 whole entry): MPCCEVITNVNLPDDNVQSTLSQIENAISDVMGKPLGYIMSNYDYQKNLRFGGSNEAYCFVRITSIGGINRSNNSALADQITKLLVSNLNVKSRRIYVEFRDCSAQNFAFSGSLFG
Description: (§1) The tautomerase activity of MIFs was monitored by following the tautomerization of L-dopachrome methyl ester by the recombinant MIFs in the presence or absence of increasing concentrations of all six limonoids extracted from neem.

[2] = biological target: T2, Macrophage migration inhibitory factor-like protein (Plasmodium yoelii yoelii, UniProt Q1HEA2)
T2 sequence (Q1HEA2 whole entry): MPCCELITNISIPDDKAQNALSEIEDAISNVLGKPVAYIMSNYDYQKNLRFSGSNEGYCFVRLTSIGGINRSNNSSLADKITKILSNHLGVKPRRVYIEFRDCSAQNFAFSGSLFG
Description: as §1

[3] = biological target: T3, Macrophage migration inhibitory factor (Homo sapiens, UniProt P14174)
T3 sequence (P14174 whole entry): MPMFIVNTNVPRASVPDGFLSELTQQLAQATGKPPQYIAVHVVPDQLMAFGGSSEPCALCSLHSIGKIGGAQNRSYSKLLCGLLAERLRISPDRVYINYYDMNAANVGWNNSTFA
Description: as §1

CC(=O)O[C@@H]1C[C@H]2C(C)(C)C(=O)C=C[C@]2(C)[C@H]2CC[C@@]3(C)[C@H](c4ccoc4)C(=O)[C@H]4O[C@]43[C@@]21C [Epoxyazadiradione] was tested, and the IC50 [1] was 9.5 µM and the IC50 [2] was 9.8 µM.
In the case of C/C=C(\C)C(=O)O[C@H]1C[C@@H](OC(C)=O)[C@@]2(C)CO[C@H]3[C@H]4O[C@@H]5C[C@@H](c6ccoc6)C(C)=C5[C@@]4(C)[C@H](CC(=O)OC)[C@]1(C)[C@@H]32 [Salannin], the IC50 [1] is reported as 89.5 µM, the IC50 [2] is reported as 95.2 µM and the IC50 [3] is reported as 85.3 µM.
In the case of CC(=O)O[C@@H]1C[C@H]2C(C)(C)C(=O)C=C[C@]2(C)[C@H]2CC[C@]3(C)C(=CC(=O)[C@H]3c3ccoc3)[C@@]21C [Azadiradione], the IC50 [1] is reported as 45.6 µM, the IC50 [2] is reported as 43 µM and the IC50 [3] is reported as 35.2 µM.
In the case of COC(=O)C[C@H]1[C@]2(C)C3=C(C)[C@H](c4ccoc4)C[C@H]3O[C@@H]2[C@H](OC(C)=O)[C@@H]2[C@]1(C)C(=O)C=C[C@@]2(C)C(=O)OC [Nimbin], the IC50 [1] is reported as 22.5 µM, the IC50 [2] is reported as 22.4 µM and the IC50 [3] is reported as 17.5 µM.
